Assays:
HEK293-GnRHR cells [1] = target: T1, HEK293-GnRHR cells (Homo sapiens, UniProt P30968); test: Intracellular calcium flux assay; assay type: cell-based; details: 100 nM
T1 construct: GFP; expressed in transfected cells
T1 sequence (P30968 1-328): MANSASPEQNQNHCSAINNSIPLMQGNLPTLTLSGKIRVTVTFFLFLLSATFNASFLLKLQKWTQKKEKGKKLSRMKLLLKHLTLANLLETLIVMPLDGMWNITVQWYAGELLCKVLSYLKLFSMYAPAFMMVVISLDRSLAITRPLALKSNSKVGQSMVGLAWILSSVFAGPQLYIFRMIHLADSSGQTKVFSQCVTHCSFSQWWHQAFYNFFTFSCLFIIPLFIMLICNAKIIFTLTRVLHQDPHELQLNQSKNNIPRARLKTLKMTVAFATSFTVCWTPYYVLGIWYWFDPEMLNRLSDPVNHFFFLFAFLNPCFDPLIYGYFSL
Protocol: (§1) Human embryonic kidney cell line (HEK293), and mouse cancer cell lines (MC38, 4T1) were purchased from the American Type Culture Collection (Manassas, VA, USA). All cell lines were grown in Dulbecco's Modified Essential Medium (DMEM) or Roswell Park Memorial Institute (RPMI) 1640 supplemented with 10% FBS, 100 U/mL penicillin, and 100 μg/mL streptomycin (WelGENE, Daegu, South Korea) in a humidified atmosphere of 5% CO2 at 37° C. To obtain GnRHR-overexpressing HEK293 (HEK293-GnRHR) cells, transfection of the pCMV-AC-GFP-GnRHR vector (HEK293-GnRHR) was performed using Lipofectamine™ 3000 according to the manufacturer's instructions (Cat. 100022052, Thermo Fisher Scientific, Waltham, MA, USA). Colonies of geneticin-resistant cells were selected by adding G418 (800 μg/mL, Sigma) to the culture medium. The HEK293-pCMV-AC-GFP vector (HEK293-Vector) cells were used as a mock-transfection group.
Intracellular calcium mobilization was measured using the Calcium Flux Assay Kit (Cat. ab233472, abcam) in response to different concentrations of each peptide. The percentage increase was calculated relative to basal fluorescence intensity. The experiment was performed in triplicate.

HEK293-GnRHR cells [2] = target: T1, HEK293-GnRHR cells; test: CRE-luciferase reporter assay; assay type: cell-based; details: 100 nM, 24 h
Protocol: as §1
The HEK293-pCMV6-AC-GFP and HEK293-GnRHR cells (4×10^4 cells/well) were grown in 96-well plates and co-transfected with a luciferase reporter plasmid containing a cAMP response element (CRE) using Lipofectamine 3000 (Life Technologies). The transfected cells were exposed to different concentrations of peptide for 24 h, and the promoter activity was measured by a dual-luciferase reporter assay system (BPS Bioscience). The firefly and Renilla luciferase activities were measured using a microplate luminometer (Thermo, Varioskan LUX Multimode Microplate Reader). The calculation of relative luciferase activities involved the normalization of the firefly luciferase activity […].

[3] = tested on: c-Myc, AKT, ERK1/2 in LNCaP tumor xenografts; test: Western blot of c-Myc and signaling proteins in LNCaP-xenografted tumors (FIG. 14); assay type: in vivo, mouse; details: LNCaP xenograft; HS1002 1 mg/kg/day, LA 0.1 mg/kg/day s.c.
Protocol: The cells and tumor tissues were homogenized using the PRO-PREP™ extraction solution (iNtRON Biotechnology, Seongnam, Korea). After incubation, the homogenate was centrifuged at 16,000×g for 20 min at 4° C., and the supernatant was collected for western blot analysis. Subsequently, an equivalent quantity of protein was separated using sodium dodecyl sulfate polyacrylamide gels and transferred onto a polyvinylidene difluoride (PVDF) membrane. The PVDF membranes were incubated with the primary antibodies overnight at 4° C., washed with tris-buffered saline, and then incubated with HRP-conjugated anti-mouse or anti-rabbit antibodies. The bands were visualized using a ChemiDoc imaging system (Bio-Rad, Hercules, CA, USA). The band intensities were determined using an Image J software.
All mice were purchased from Central Lab Animal Inc. ([…]). They were raised in a 12 h environmental light/dark cycle with controlled temperature (22±2° C.) conditions. The experimental protocol was approved by the Sungkyunkwan University Institutional Animal Care and Use Committee (SKKUIACUC2021-06-27-1, SKKUIACUC2023-01-07-1). For the establishment of tumors, LNCaP (1×10^7), MC38 (2×10^5), and 4T1 (1×10^6) suspended in serum-free media containing 50% Matrigel was subcutaneously administered in the right flank of mice, respectively. The tumor volumes (V) were calculated using a caliper and the standard equation: V (mm^3)=0.52 (ab^2) (a=length, b=width). Once the tumor reached 100-200 mm^3, the mice were randomly divided into different groups and subcutaneously injected with a vehicle or each peptide every day.
To investigate the anticancer effect of HS1002, the present inventors observed the volume of cancer cells after transplanting the cancer cells into experimental animals. Specifically, mice (4-week-old male BALB/c nude mice; Central Lab. Animal Inc., Seoul, Korea) were prepared, and tumor cells (1×10^7 LNCaP cells) suspended in 1 mL of a serum-free medium containing 50% Matrigel were percutaneously injected into the upper flank of each nude mouse. When the tumor cell volume reached about 200 mm^3, the mice were randomly assigned to a vehicle control group, a leuprolide acetate-treated group, and test groups (GV1001-treated group and HS1002-treated group), respectively. Leuprolide acetate (0.1 mg/kg/day) and GV1001 and HS1002 (1 mg/kg/day) were injected subcutaneously for 13 days.

HEK293-Vector cells = test: CRE-luciferase reporter assay, mock-transfected cells; assay type: cell-based, human
Protocol: as §1, with “group. […] The transfected cells were exposed to different concentrations of peptide for 24 h, and the promoter activity was measured by a dual-luciferase reporter assay system (BPS Bioscience). The firefly and Renilla luciferase activities were measured using a microplate luminometer (Thermo, Varioskan LUX Multimode Microplate Reader). […]” for “group.”

CCNC(=O)[C@@H]1CCCN1C(=O)[C@H](CCCNC(=N)N)NC(=O)[C@H](CC(C)C)NC(=O)[C@@H](CC(C)C)NC(=O)[C@H](Cc1ccc(O)cc1)NC(=O)[C@H](CO)NC(=O)[C@H](Cc1c[nH]c2ccccc12)NC(=O)[C@H](Cc1c[nH]cn1)NC(=O)[C@@H]1CCC(=O)N1 [LA, Leuprolide acetate, reference compound]
calcium flux (HEK293-GnRHR cells [1]): more potent effect of calcium flux in HEK293-GnRHR cells than in HEK293-Vector cells
CRE-derived reporter gene activity (HEK293-GnRHR cells [2]): induced CRE-derived reporter gene activity
expression of c-Myc in tumor tissue [3]: significantly downregulated
expression of p-AKT in tumor tissue [3]: significantly downregulated
expression of p-ERK1/2 in tumor tissue [3]: significantly downregulated
CRE-luciferase activity (HEK293-Vector cells): no significant change

— US20240247031A1, “COMPOSITION FOR TREATING CANCER CONTAINING TELOMERASE-TARGETING GNRH ANTAGONIST-DERIVED PEPTIDE HS1002” (Research & Business Foundation Sungkyunkwan University, priority 2023, published 2024)
